Data published in patent US6737383B1, “Herbicidal oxadiazolidines” (priority 1999, dated 2004).

What was measured:
bedstraw = assay: Test B pre/postemergence bedstraw; type: in vivo, Galium aparine
Outline: (§1)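 Response is a visual 0-to-10 score relative to untreated plants, where 0 means no effect and 10 means complete control, taken twelve to sixteen days after application. Treatments went onto soil at planting and onto foliage of 1- to 4-leaf plants, using a surfactant-containing non-phytotoxic solvent.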

blackgrass = assay: Test B pre/postemergence blackgrass; type: in vivo, Alopecurus myosuroides
Outline: as §1

surinam grass = assay: Test B pre/postemergence surinam grass; type: in vivo, Brachiaria decumbens
Outline: as §1

cocklebur = assay: Test B pre/postemergence cocklebur; type: in vivo, Xanthium strumarium
Outline: as §1

corn = assay: Test B pre/postemergence corn; type: in vivo, Zea mays
Outline: as §1

crabgrass = assay: Test B pre/postemergence crabgrass; type: in vivo, Digitaria sanguinalis
Outline: as §1

giant foxtail = assay: Test B pre/postemergence giant foxtail; type: in vivo, Setaria faberii
Outline: as §1

morningglory = assay: Test B pre/postemergence morningglory; type: in vivo, Ipomoea hederacea
Outline: as §1

pigweed = assay: Test B pre/postemergence pigweed; type: in vivo, Amaranthus retroflexus
Outline: as §1

rape = assay: Test B pre/postemergence rape; type: in vivo, Brassica napus
Outline: as §1

soybean = assay: Test B pre/postemergence soybean; type: in vivo, Glycine max
Outline: as §1

sugar beet = assay: Test B pre/postemergence sugar beet; type: in vivo, Beta vulgaris
Outline: as §1

velvetleaf = assay: Test B pre/postemergence velvetleaf; type: in vivo, Abutilon theophrasti
Outline: as §1

wheat = assay: Test B pre/postemergence wheat; type: in vivo, Triticum aestivum
Outline: as §1

wild oat = assay: Test B pre/postemergence wild oat; type: in vivo, Avena fatua
Outline: as §1

purple nutsedge = assay: Test B pre/postemergence purple nutsedge; type: in vivo, Cyperus rotundus
Outline: as §1

[1] = Postemergence, Rate 500 g/ha, scale 0 to 10, 0 is no effect, 10 is complete control
[2] = Preemergence, Rate 62 g/ha, scale of 0 to 10 where 0 is no effect and 10 is complete control
[3] = Preemergence, Rate 125 g/ha, scale 0 to 10, 0 is no effect, 10 is complete control
[4] = Preemergence, Rate 250 g/ha, scale 0 to 10, 0 is no effect, 10 is complete control
[5] = Preemergence, Rate 500 g/ha, scale 0 to 10, 0 is no effect, 10 is complete control
[6] = Postemergence, Rate 62 g/ha, scale of 0 to 10, 0 is no effect, 10 is complete control
[7] = Postemergence, Rate 125 g/ha, scale 0 to 10, 0 is no effect, 10 is complete control
[8] = Postemergence, Rate 250 g/ha, scale 0 to 10
[9] = Preemergence, Rate 500 g/ha, scale of 0 to 10 where 0 is no effect and 10 is complete control
[10] = Preemergence, Rate 250 g/ha, scale 0 to 10 (0 no effect, 10 complete control)
[11] = Preemergence, Rate 125 g/ha, scale of 0 to 10 where 0 is no effect and 10 is complete control

CC(C)N(C(=O)n1oc(=O)n(CC2OCCO2)c1=O)c1ccc(F)cc1F [Compound 501]
Plant response rating, Bedstraw (bedstraw; [1]): 9
Plant response rating, Bedstraw (bedstraw; [2]): 2
Bedstraw plant response rating (bedstraw; [3]): 9
Bedstraw plant response rating (bedstraw; [4]): 10
Bedstraw plant response rating (bedstraw; [5]): 9
Blackgrass plant response rating (blackgrass; [6]): 3
Blackgrass plant response rating (blackgrass; [7]): 6
Blackgrass plant response rating (blackgrass; [8]): 6
Plant response rating, Blackgrass (blackgrass; [1]): 7
Plant response rating, Blackgrass (blackgrass; [2]): 5
Blackgrass plant response rating (blackgrass; [3]): 5
Blackgrass plant response rating (blackgrass; [4]): 9
Blackgrass plant response rating (blackgrass; [9]): 9
B. signalgrass plant response rating (surinam grass; [6]): 2
B. signalgrass plant response rating (surinam grass; [7]): 6
B. signalgrass plant response rating (surinam grass; Postemergence, Rate 250 g/ha, scale 0 to 10, 0 no effect, 10 complete control): 7
Plant response rating, B. signalgrass (surinam grass; [1]): 7
Plant response rating, B. signalgrass (surinam grass; [2]): 8
B. signalgrass plant response rating (surinam grass; [3]): 9
B. signalgrass plant response rating (surinam grass; [4]): 9
B. signalgrass plant response rating (surinam grass; [5]): 10
Cocklebur plant response rating (cocklebur; [6]): 0
Cocklebur plant response rating (cocklebur; [7]): 0
Cocklebur plant response rating (cocklebur; [8]): 2
Plant response rating, Cocklebur (cocklebur; [1]): 5
Plant response rating, Cocklebur (cocklebur; [2]): 0
Cocklebur plant response rating (cocklebur; [3]): 0
Cocklebur plant response rating (cocklebur; [4]): 0
Cocklebur plant response rating (cocklebur; [9]): 3
Corn plant response rating (corn; [6]): 0
Corn plant response rating (corn; [7]): 0
Corn plant response rating (corn; [8]): 4
Plant response rating, Corn (corn; [1]): 6
Corn plant response rating (corn; [3]): 2
Crabgrass plant response rating (crabgrass; [6]): 7
Crabgrass plant response rating (crabgrass; [7]): 8
Crabgrass plant response rating (crabgrass; [8]): 9
Plant response rating, Crabgrass (crabgrass; [1]): 8
Plant response rating, Crabgrass (crabgrass; [2]): 8
Crabgrass plant response rating (crabgrass; [3]): 9
Crabgrass plant response rating (crabgrass; [9]): 9
Giant foxtail plant response rating (giant foxtail; [6]): 8
Giant foxtail plant response rating (giant foxtail; [7]): 8
Plant response rating, Giant foxtail (giant foxtail; [1]): 8
Plant response rating, Giant foxtail (giant foxtail; [2]): 9
Giant foxtail plant response rating (giant foxtail; [3]): 10
Giant foxtail plant response rating (giant foxtail; [9]): 10
Morningglory plant response rating (morningglory; [6]): 0
Morningglory plant response rating (morningglory; [7]): 3
Plant response rating, Morningglory (morningglory; [1]): 4
Plant response rating, Morningglory (morningglory; [2]): 0
Morningglory plant response rating (morningglory; [3]): 0
Morningglory plant response rating (morningglory; [9]): 5
Redroot pigweed plant response rating (pigweed; [6]): 0
Redroot pigweed plant response rating (pigweed; [7]): 4
Plant response rating, Redroot pigweed (pigweed; [1]): 5
Plant response rating, Redroot pigweed (pigweed; [2]): 9
Redroot pigweed plant response rating (pigweed; [3]): 10
Redroot pigweed plant response rating (pigweed; [9]): 10
Rape plant response rating (rape; [6]): 2
Rape plant response rating (rape; [7]): 2
Plant response rating, Rape (rape; [1]): 7
Plant response rating, Rape (rape; [2]): 0
Rape plant response rating (rape; [3]): 0
Rape plant response rating (rape; [9]): 10
Soybean plant response rating (soybean; [6]): 4
Soybean plant response rating (soybean; [7]): 3
Plant response rating, Soybean (soybean; [1]): 5
Plant response rating, Soybean (soybean; [2]): 0
Soybean plant response rating (soybean; [3]): 0
Soybean plant response rating (soybean; [9]): 8
Sugarbeets plant response rating (sugar beet; [6]): 5
Sugarbeets plant response rating (sugar beet; [7]): 5
Plant response rating, Sugarbeets (sugar beet; [1]): 8
Plant response rating, Sugarbeets (sugar beet; [2]): 0
Sugarbeets plant response rating (sugar beet; [3]): 3
Sugarbeets plant response rating (sugar beet; [9]): 8
Velvetleaf plant response rating (velvetleaf; [6]): 0
Velvetleaf plant response rating (velvetleaf; [7]): 0
Plant response rating, Velvetleaf (velvetleaf; [1]): 3
Plant response rating, Velvetleaf (velvetleaf; [2]): 0
Velvetleaf plant response rating (velvetleaf; [3]): 2
Velvetleaf plant response rating (velvetleaf; [9]): 5
Wheat plant response rating (wheat; [6]): 2
Plant response rating, Wheat (wheat; [1]): 3
Plant response rating, Wheat (wheat; [2]): 4
Wheat plant response rating (wheat; [3]): 4
Wheat plant response rating (wheat; [9]): 8
Wild oats plant response rating (wild oat; [6]): 0
Wild oats plant response rating (wild oat; [7]): 0
Plant response rating, Wild oats (wild oat; [1]): 3
Plant response rating, Wild oats (wild oat; [2]): 0
Wild oats plant response rating (wild oat; [3]): 7
Wild oats plant response rating (wild oat; [9]): 10
Nutsedge plant response rating (purple nutsedge; [7]): 0
Plant response rating, Nutsedge (purple nutsedge; [1]): 2
Plant response rating, Nutsedge (purple nutsedge; [2]): 0
Nutsedge plant response rating (purple nutsedge; [3]): 3
Nutsedge plant response rating (purple nutsedge; [9]): 9

CC(C)N(C(=O)n1oc(=O)n(CC(Cl)Cl)c1=O)c1ccc(F)cc1F [Compound 673]
Bedstraw plant response rating (bedstraw; [2]): 3
Plant response rating, Bedstraw (bedstraw; [10]): 4
Plant response rating, Bedstraw (bedstraw; [9]): 6
Blackgrass plant response rating (blackgrass; [2]): 3
Plant response rating, Blackgrass (blackgrass; [11]): 8
Plant response rating, Blackgrass (blackgrass; [10]): 9
Plant response rating, Blackgrass (blackgrass; [9]): 9
B. signalgrass plant response rating (surinam grass; [2]): 4
Plant response rating, B. signalgrass (surinam grass; [11]): 6
Plant response rating, B. signalgrass (surinam grass; [10]): 7
Plant response rating, B. signalgrass (surinam grass; [9]): 8
Cocklebur plant response rating (cocklebur; [2]): 0
Plant response rating, Cocklebur (cocklebur; [11]): 0
Plant response rating, Cocklebur (cocklebur; [10]): 0
Plant response rating, Cocklebur (cocklebur; [9]): 2
Corn plant response rating (corn; [2]): 0
Plant response rating, Corn (corn; [11]): 2
Plant response rating, Corn (corn; [10]): 4
Plant response rating, Corn (corn; [9]): 6
Crabgrass plant response rating (crabgrass; [2]): 4
Plant response rating, Crabgrass (crabgrass; [11]): 8
Plant response rating, Crabgrass (crabgrass; [10]): 10
Plant response rating, Crabgrass (crabgrass; [9]): 10
Giant foxtail plant response rating (giant foxtail; [2]): 9
Plant response rating, Giant foxtail (giant foxtail; [11]): 10
Plant response rating, Giant foxtail (giant foxtail; [10]): 10
Plant response rating, Giant foxtail (giant foxtail; [9]): 10
Morningglory plant response rating (morningglory; [2]): 0
Plant response rating, Morningglory (morningglory; [11]): 0
Plant response rating, Morningglory (morningglory; [10]): 0
Plant response rating, Morningglory (morningglory; [9]): 2
Redroot pigweed plant response rating (pigweed; [2]): 6
Plant response rating, Redroot pigweed (pigweed; [11]): 7
Plant response rating, Redroot pigweed (pigweed; [10]): 10
Plant response rating, Redroot pigweed (pigweed; [9]): 10
Rape plant response rating (rape; [2]): 1
Plant response rating, Rape (rape; [11]): 2
Plant response rating, Rape (rape; [10]): 2
Plant response rating, Rape (rape; [9]): 2
Soybean plant response rating (soybean; [2]): 0
Plant response rating, Soybean (soybean; [11]): 0
Plant response rating, Soybean (soybean; [10]): 0
Plant response rating, Soybean (soybean; [9]): 0
Sugarbeets plant response rating (sugar beet; [2]): 0
Plant response rating, Sugarbeets (sugar beet; [11]): 0
Plant response rating, Sugarbeets (sugar beet; [10]): 3
Plant response rating, Sugarbeets (sugar beet; [9]): 3
Velvetleaf plant response rating (velvetleaf; [2]): 0
Plant response rating, Velvetleaf (velvetleaf; [11]): 3
Plant response rating, Velvetleaf (velvetleaf; [10]): 3
Plant response rating, Velvetleaf (velvetleaf; [9]): 8
Wheat plant response rating (wheat; [2]): 0
Plant response rating, Wheat (wheat; [11]): 0
Plant response rating, Wheat (wheat; [10]): 0
Wild oats plant response rating (wild oat; [2]): 5
Plant response rating, Wild oats (wild oat; [10]): 9
Plant response rating, Wild oats (wild oat; [9]): 8
Nutsedge plant response rating (purple nutsedge; [2]): 0
Plant response rating, Nutsedge (purple nutsedge; [11]): 0
Plant response rating, Nutsedge (purple nutsedge; [10]): 2
Plant response rating, Nutsedge (purple nutsedge; [9]): 6
